What was measured:
Experiment in all cases: relative viability (nuclei count vs DMSO), 5 days (fraction); higher = more cells survive
Linsitinib + Lapatinib = compound: C[C@]1(O)C[C@@H](c2nc(-c3ccc4ccc(-c5ccccc5)nc4c3)c3c(N)nccn32)C1 [Linsitinib] + CS(=O)(=O)CCNCc1ccc(-c2ccc3ncnc(Nc4ccc(OCc5cccc(F)c5)c(Cl)c4)c3c2)o1 [Lapatinib] (partner 2 µM)
Method in brief: (§1)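 A single step with final 0.05% Triton X-100, 1% formaldehyde and 1 ug/ml Hoechst fixed the cells and stained nuclei 5 days after treatment. Lung cancer cell lines in 1536-well plates had been treated by pin tool the day after seeding with one drug alone or a fixed anchor-drug dose plus five library-drug doses (not always all listed) in √10 steps, and nuclei were counted on 4× images. Relative viability is the ratio of nuclei in treated wells to nuclei in vehicle wells, taken as the median of duplicate plates.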

Linsitinib + Alpelisib = compound: C[C@]1(O)C[C@@H](c2nc(-c3ccc4ccc(-c5ccccc5)nc4c3)c3c(N)nccn32)C1 [Linsitinib] + Cc1nc(NC(=O)N2CCC[C@H]2C(N)=O)sc1-c1ccnc(C(C)(C)C(F)(F)F)c1 [Alpelisib] (partner 2 µM)
Method in brief: as §1

Linsitinib + Crizotinib = compound: C[C@]1(O)C[C@@H](c2nc(-c3ccc4ccc(-c5ccccc5)nc4c3)c3c(N)nccn32)C1 [Linsitinib] + C[C@@H](Oc1cc(-c2cnn(C3CCNCC3)c2)cnc1N)c1c(Cl)ccc(F)c1Cl [Crizotinib] (partner 1 µM)
Method in brief: as §1

Linsitinib + Dasatinib = compound: C[C@]1(O)C[C@@H](c2nc(-c3ccc4ccc(-c5ccccc5)nc4c3)c3c(N)nccn32)C1 [Linsitinib] + Cc1nc(Nc2ncc(C(=O)Nc3c(C)cccc3Cl)s2)cc(N2CCN(CCO)CC2)n1 [Dasatinib] (partner 0.075 µM)
Method in brief: as §1

Cell Line	relative viability (Linsitinib + Lapatinib; first compound 0.01 µM)	relative viability (Linsitinib + Lapatinib; first compound 0.03162 µM)	relative viability (Linsitinib + Lapatinib; first compound 0.1 µM)	relative viability (Linsitinib + Lapatinib; first compound 0.3162 µM)	relative viability (Linsitinib + Lapatinib; first compound 1 µM)	relative viability (Linsitinib + Alpelisib; first compound 0.01 µM)	relative viability (Linsitinib + Alpelisib; first compound 0.03162 µM)	relative viability (Linsitinib + Alpelisib; first compound 0.1 µM)	relative viability (Linsitinib + Alpelisib; first compound 0.3162 µM)	relative viability (Linsitinib + Alpelisib; first compound 1 µM)	relative viability (Linsitinib + Crizotinib; first compound 0.01 µM)	relative viability (Linsitinib + Crizotinib; first compound 0.03162 µM)	relative viability (Linsitinib + Crizotinib; first compound 0.1 µM)	relative viability (Linsitinib + Crizotinib; first compound 0.3162 µM)	relative viability (Linsitinib + Crizotinib; first compound 1 µM)	relative viability (Linsitinib + Dasatinib; first compound 0.01 µM)	relative viability (Linsitinib + Dasatinib; first compound 0.03162 µM)	relative viability (Linsitinib + Dasatinib; first compound 0.1 µM)	relative viability (Linsitinib + Dasatinib; first compound 1 µM)	relative viability (Linsitinib + Dasatinib; first compound 0.3162 µM)
Calu-6	0.98	0.949	1.18	0.985	0.947	1.01	0.919	1.04	1.03	0.794	0.79	0.701	0.837	0.717	0.708	–	–	–	–	–
NCI-H522	–	–	–	–	–	–	–	–	–	–	–	–	–	–	–	0.829	1.03	0.902	0.86	–
NCI-H650	0.701	0.926	0.871	–	0.646	1.34	1.23	1.02	–	1.07	0.736	0.907	0.857	–	0.703	0.45	0.432	0.47	0.325	0.374
NCI-H460	1	0.784	1.03	0.699	0.868	0.46	0.325	0.475	0.329	0.351	0.799	0.837	0.961	0.745	0.714	0.578	0.393	0.441	0.146	0.34
NCI-H2228	0.978	0.839	1.08	0.663	0.8	0.594	0.746	0.723	0.493	0.586	0.411	0.419	0.399	0.298	0.398	0.48	0.483	0.52	0.387	0.421
NCI-H2085	0.701	0.822	0.822	0.753	0.658	0.886	1.12	1.06	0.888	0.922	0.956	0.939	0.999	0.68	0.763	0.275	0.257	0.22	0.23	0.246
HCC-366	1.14	0.8	1.07	0.326	0.874	0.416	0.239	0.446	0.242	0.201	0.542	0.487	0.583	0.433	0.429	0.644	0.606	0.488	0.174	0.543
EPLC-272H	0.977	0.948	0.999	–	0.736	0.909	0.942	0.87	–	0.925	0.774	0.995	0.873	–	0.733	0.359	0.407	–	0.261	–
201T	0.967	1.06	1.07	0.789	0.978	1.01	1.04	1.1	1.06	1.04	1.02	1.03	1.07	1.11	1.01	0.604	0.581	0.531	0.439	0.725
NCI-H3122	1.04	1.06	0.982	0.737	1.12	0.85	0.763	0.768	0.699	0.758	0.261	0.281	0.282	0.323	0.323	0.846	0.808	0.765	0.514	0.218
LCLC-103H	–	–	–	–	–	0.896	0.943	0.975	1.09	0.942	0.991	0.973	1.01	0.924	0.932	0.444	0.517	0.474	0.368	0.428
NCI-H1650	0.8	0.84	0.777	0.164	0.481	–	–	–	–	–	1.03	1.08	0.963	0.915	0.799	0.291	0.293	0.355	0.241	0.258
NCI-H2342	–	–	–	–	–	–	–	–	–	–	–	–	–	–	–	0.307	0.306	0.306	0.298	0.353
EBC-1	0.259	0.26	0.248	0.244	0.2	0.758	0.841	1.05	0.601	0.814	0.168	0.173	0.212	0.197	0.193	–	–	–	–	–
ChaGo-K-1	–	–	–	–	–	–	–	–	–	–	1.08	1.07	1.14	0.812	1.04	0.649	0.5	0.588	0.588	0.415
IA-LM	0.962	1.02	0.854	0.61	0.437	0.829	0.809	0.743	0.387	0.51	0.763	0.775	0.736	0.656	0.496	–	–	–	–	–
NCI-H1703	1.06	–	1.52	1.38	1.09	0.363	–	0.346	0.227	0.219	0.585	–	0.595	0.93	0.35	–	–	–	–	–
A549	0.981	1.02	0.816	0.783	0.443	0.744	0.668	0.634	0.423	0.421	0.685	0.771	0.684	0.623	0.473	–	–	–	–	–
HCC-44	1.02	0.859	0.983	0.357	0.63	0.751	0.677	0.691	0.499	0.606	0.704	0.78	0.739	0.56	0.612	–	–	–	–	–
NCI-H1623	–	–	–	–	–	–	–	–	–	–	–	–	–	–	–	0.561	0.527	0.45	0.415	–
NCI-H1395	1.08	0.803	1.12	0.83	0.906	0.945	0.915	1.24	0.962	0.957	–	–	–	–	–	0.425	0.372	0.399	0.43	0.441

— the supplement of paper PMC10307832
